Laboratory results reported in US12606561B2, “Substituted pyrazolo[1,5-a][1,3,5]triazines as CDK inhibitors” (QURIENT CO., LTD., priority 2018, dated 2026).

How the values were obtained:
[1] = molecular target: T1, CDK1/Cyclin B (Homo sapiens, UniProt P06493); test: Enzymatic assay for CDK1 (LANCE Ultra kinase assay, FRET based); type: biochemical; conditions: ATP at Km; read-out: CDK1 enzymatic activity IC50
T1 construct: purchased Invitrogen PR4768C
Protocol: (§1) Enzymatic Binding Assay Protocol for CDK1, CDK2, CDK5 and CDK7
(§2) Inhibition activity of the respective compound on CDK kinase under Km value of ATP was tested in FRET based The LANCE® Ultra kinase assay (Perkin Elmer), which uses a ULight™-labeled peptide substrate and an appropriate Europium-labeled anti-phospho-antibody. […] After 1 min centrifugation at 1000 rpm, purified CDKs/Cyclin complex were added with the following concentrations respectively. […] Data were analyzed using XL Fit software.

[2] = molecular target: T2, CDK2/Cyclin A (Homo sapiens, UniProt P24941); test: Enzymatic assay for CDK2 (LANCE Ultra kinase assay, FRET based); type: biochemical; conditions: ATP at Km
T2 construct: purchased Invitrogen PV6290
Protocol: as §1
(§3) Inhibition activity of the respective compound on CDK kinase under Km value of ATP was tested in FRET based The LANCE® Ultra kinase assay (Perkin Elmer), which uses a ULight™-labeled peptide substrate and an appropriate Europium-labeled anti-phospho-antibody. Test compounds were made with DMSO solutions, and then 4-fold serial dilutions for 8 doses were prepared using automated liquid handler (POD™ 810, Labcyte) and 80 nL/well of diluted compound solutions were added into the 384-well plates (Greiner, Cat #784075). And then 68 nM of ULight-MBP peptide (Perkin Elmer, Cat #TRF0109-M) and 5 ul/well of ATP (Sigma, Cat #A7699) were added to the plate. After 1 min centrifugation at 1000 rpm, purified CDKs/Cyclin complex were added with the following concentrations respectively. 24 uM for CDK1/Cyclin B (Invitrogen, Cat #PR4768C), 22 uM for CDK2/Cyclin A (Invitrogen, Cat #PV6290), 10 uM for CDK5/p25 (Invitrogen, Cat #PR8543B) and […] for CDK7/Cyclin H/MNAT1 (Invitrogen, Cat #PR6749B) were added to each corresponding plate for CDK1, CDK2, CDK5 and CDK7. Incubate at 23° C. for 60 min and then Eu-labeled anti-phospho-Myelin Basic Protein (PE, Cat #TRF0201-M) and EDTA (Invitrogen, Cat #15575038) mixture in Lance Detection Buffer (Perkin Elmer, Cat #CR97100) was added in each well. After additional incubation at 23° C. for 60 min, test articles were measured the fluorescence using Envision leader (Perkin Elmer, USA) [Laser as excitation light; […] as the first and the second emission filter]. Data were analyzed using XL Fit software.

[3] = molecular target: T3, CDK7/Cyclin H/MNAT1 (Homo sapiens, UniProt P50613); test: Enzymatic assay for CDK7 (LANCE Ultra kinase assay, FRET based); type: biochemical; conditions: for IC50: ATP at Km
T3 construct: purchased Invitrogen PR6749B
Protocol: as §1, §2

[4] = molecular target: T4, CDK5/p25 (Homo sapiens, UniProt Q00535); test: Enzymatic assay for CDK5 (LANCE Ultra kinase assay, FRET based); type: biochemical; conditions: ATP at Km
T4 construct: purchased Invitrogen PR8543B
Protocol: as §1, §3

[5] = tested on: A2780; test: A2780 viability assay (CellTiter-Glo, 72 hours); type: cell-based; conditions: Homo sapiens; A2780 cells
Protocol: Human […] cell line, MV4-11_(ATCC, Cat #CRL-9591), NSCLC (Non-small cell lung cancer) cell line H460 (ATCC, Cat #HTB-177), A2780 (ECACC, Cat #93112519) and OVCAR-3(ATCC, Cat #HTB-161) were obtained from ATCC. Cells were grown in RPMI-1640 media (Invitrogen, Cat #22400-089) supplemented with 10% FBS (Invitrogen, Cat #10099141) and 1% penicillin/streptomycin (Invitrogen, Cat #15070063) and cultured at 37° C., 5% CO2 in a humidified chamber. All cell lines were routinely tested for mycoplasma.
To effect of the CDK7 inhibitor to inhibit the growth of target cancer cells, viability assay were conducted a 72 hour time period. Briefly, the candidate cell line was plated in 96 well plate at the following density of cells respectively. 1×10^4 cells/well for MV4-11, 5×10^3 for H460 and OVCAR-3, and 1×10^3 for A2780. After 24 hours, the cells were treated with various concentrations of the compound (ranging from 0.0015 uM to 10 uM). DMSO solvent without compound served as a control and final DMSO concentration lest than 0.1%. After 72 hours of incubation at 37° C., 5% CO2 incubator, cells were analyzed for the viability using the CellTiter-Glo Luminescent Cell Viability Assay (Promega, Cat #G7570). All viability assays were performed in duplicate and Luminescence was read using an Envision (Perkin Elmer, USA). Data was analyzed using XLfit software.

T4 sequence (Q00535 whole entry): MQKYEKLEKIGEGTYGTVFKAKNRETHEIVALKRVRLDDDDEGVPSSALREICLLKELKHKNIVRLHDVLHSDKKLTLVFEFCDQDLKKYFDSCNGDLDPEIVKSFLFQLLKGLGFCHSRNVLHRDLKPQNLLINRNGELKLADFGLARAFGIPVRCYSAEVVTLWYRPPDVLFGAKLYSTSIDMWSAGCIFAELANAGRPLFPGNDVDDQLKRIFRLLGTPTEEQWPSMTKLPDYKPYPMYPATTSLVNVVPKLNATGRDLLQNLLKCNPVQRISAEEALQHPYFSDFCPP
T4 sequence (Q15078 99-307 partner limits assumed): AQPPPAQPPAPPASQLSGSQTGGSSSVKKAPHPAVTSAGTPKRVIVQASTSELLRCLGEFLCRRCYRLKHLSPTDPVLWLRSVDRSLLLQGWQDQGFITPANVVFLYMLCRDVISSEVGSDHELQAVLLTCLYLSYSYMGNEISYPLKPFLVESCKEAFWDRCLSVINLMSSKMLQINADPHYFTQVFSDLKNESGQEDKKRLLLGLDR
T3 sequence (P50613 whole entry): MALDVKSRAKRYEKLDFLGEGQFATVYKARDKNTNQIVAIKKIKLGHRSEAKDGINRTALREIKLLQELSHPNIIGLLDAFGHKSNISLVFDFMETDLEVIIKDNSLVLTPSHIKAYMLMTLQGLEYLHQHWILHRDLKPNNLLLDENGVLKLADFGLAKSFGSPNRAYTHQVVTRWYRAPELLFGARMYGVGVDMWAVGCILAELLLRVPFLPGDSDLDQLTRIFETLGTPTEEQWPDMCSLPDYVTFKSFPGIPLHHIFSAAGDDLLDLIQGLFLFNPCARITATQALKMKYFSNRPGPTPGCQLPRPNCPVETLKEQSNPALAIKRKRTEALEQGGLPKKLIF
T3 sequence (P51946 whole entry partner): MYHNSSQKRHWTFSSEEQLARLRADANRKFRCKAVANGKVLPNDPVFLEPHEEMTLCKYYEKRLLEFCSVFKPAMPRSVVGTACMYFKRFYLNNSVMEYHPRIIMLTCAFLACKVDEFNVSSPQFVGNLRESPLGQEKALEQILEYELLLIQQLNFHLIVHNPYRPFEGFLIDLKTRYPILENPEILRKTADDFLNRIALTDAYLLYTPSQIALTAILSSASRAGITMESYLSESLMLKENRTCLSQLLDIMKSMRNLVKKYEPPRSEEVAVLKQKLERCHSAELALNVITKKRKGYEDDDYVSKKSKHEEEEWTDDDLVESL
T3 sequence (P51948 whole entry partner): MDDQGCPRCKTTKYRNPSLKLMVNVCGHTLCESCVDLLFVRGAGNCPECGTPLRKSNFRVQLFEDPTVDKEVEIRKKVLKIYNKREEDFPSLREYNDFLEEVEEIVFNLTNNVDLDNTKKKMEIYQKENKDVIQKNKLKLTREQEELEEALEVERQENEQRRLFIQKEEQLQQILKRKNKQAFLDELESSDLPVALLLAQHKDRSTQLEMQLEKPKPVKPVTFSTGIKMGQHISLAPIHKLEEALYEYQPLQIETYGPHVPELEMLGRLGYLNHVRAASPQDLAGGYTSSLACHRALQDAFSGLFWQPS
T1 sequence (P06493 whole entry): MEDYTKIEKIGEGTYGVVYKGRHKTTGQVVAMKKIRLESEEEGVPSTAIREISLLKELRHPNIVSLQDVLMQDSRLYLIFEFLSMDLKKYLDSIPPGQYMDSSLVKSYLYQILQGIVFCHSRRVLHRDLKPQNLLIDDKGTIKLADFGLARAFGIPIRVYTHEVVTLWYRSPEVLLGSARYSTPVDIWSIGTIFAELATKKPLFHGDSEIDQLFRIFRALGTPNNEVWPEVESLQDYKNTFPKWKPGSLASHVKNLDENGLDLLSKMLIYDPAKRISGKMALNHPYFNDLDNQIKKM
T1 sequence (P14635 whole entry partner): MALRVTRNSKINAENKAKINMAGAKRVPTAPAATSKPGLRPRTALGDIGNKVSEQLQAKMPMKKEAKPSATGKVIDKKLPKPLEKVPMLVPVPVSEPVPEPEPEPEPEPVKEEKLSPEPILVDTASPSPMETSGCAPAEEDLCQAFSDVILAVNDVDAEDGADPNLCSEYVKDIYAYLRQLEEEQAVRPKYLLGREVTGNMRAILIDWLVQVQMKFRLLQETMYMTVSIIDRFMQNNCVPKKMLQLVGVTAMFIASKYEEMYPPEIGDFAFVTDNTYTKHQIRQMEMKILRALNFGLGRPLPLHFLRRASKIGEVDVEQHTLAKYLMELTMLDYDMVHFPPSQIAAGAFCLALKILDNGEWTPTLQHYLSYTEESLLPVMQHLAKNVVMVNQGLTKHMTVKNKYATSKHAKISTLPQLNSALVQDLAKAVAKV

| Structure (SMILES) | IC50 [1] [µM] | IC50 [2] [µM] | IC50 [3] [µM] | CDK1/CDK7: Selectivity of CDK7 inhibition over CDK1 inhibition [3] | CDK2/CDK7: Selectivity of CDK7 inhibition over CDK2 inhibition [3] | CDK5/CDK7: Selectivity of CDK7 inhibition over CDK5 inhibition [3] | IC50 [4] [µM] | IC50 [5] [µM] |
| --- | --- | --- | --- | --- | --- | --- | --- | --- |
| C=C(F)C(=O)N1CCc2c(ccnc2-c2ccccc2CNc2nc(OC3CCC(C)(C)NC3)nc3c(C(C)C)cnn23)C1 (stereo not drawn) [Compound 199] | > 1 | > 1 | < 0.1 | A (A indicates [fold] > 500) | A (A indicates [fold] > 500) | A (A indicates [fold] > 500) | > 1 | < 1 |
| C=C(Br)C(=O)Nc1ccc2c(-c3ccccc3CNc3nc(NC[C@H]4CCNC[C@@H]4O)nc4c(C(C)C)cnn34)nccc2c1 [Compound 205] | > 1 | > 1 | < 0.1 | B (B indicates 50 < [fold] ≤ 500) | B (B indicates 50 < [fold] ≤ 500) | B (B indicates 50 < [fold] ≤ 500) | > 1 | < 1 |
| C=C(Cl)C(=O)Nc1ccc2c(-c3ccccc3CNc3nc(N[C@H]4CC[C@H](OC)CC4)nc4c(C(C)C)cnn34)nccc2c1 [Compound 209] | > 1 | > 1 | < 0.1 | A (A indicates [fold] > 500) | A (A indicates [fold] > 500) | A (A indicates [fold] > 500) | > 1 | < 1 |
| C=CC(=O)Nc1ccc2c(-c3ccccc3CNc3cc(NC4CCC(F)(F)CC4)nc4c(C(C)C)cnn34)nccc2c1 [Compound 186] | > 1 | > 1 | < 0.1 | A (A indicates [fold] > 500) | A (A indicates [fold] > 500) | A (A indicates [fold] > 500) | > 1 | < 1 |
| CC(C)c1cnn2c(NCc3ccccc3-c3nccc4cc(NC(=O)/C=C/CN(C)C)ccc34)cc(NC3CCC(F)(F)CC3)nc12 [Compound 185] | > 1 | > 1 | < 0.1 | A (A indicates [fold] > 500) | A (A indicates [fold] > 500) | A (A indicates [fold] > 500) | > 1 | < 1 |
| C=CC(=O)Nc1ccc2c(-c3ccccc3CNc3cc(Nc4cccc(OC5CCC(C)(C)NC5)c4)nc4c(C(C)C)cnn34)nccc2c1 (stereo not drawn) [Compound 187] | > 1 | > 1 | < 0.1 | A (A indicates [fold] > 500) | A (A indicates [fold] > 500) | A (A indicates [fold] > 500) | > 1 | < 1 |
| CC(C)c1cnn2c(NCc3ccccc3-c3nccc4cc(NC(=O)/C=C/CN(C)C)ccc34)cc(C(F)(F)F)nc12 [Compound 204] | > 1 | > 1 | < 0.1 | A (A indicates [fold] > 500) | A (A indicates [fold] > 500) | A (A indicates [fold] > 500) | > 1 | < 1 |
| C=C(F)C(=O)N1CCc2c(cccc2-c2ccccc2CNc2nc(N[C@@H]3CCCNC3)nc3c(C(C)C)cnn23)C1 [Compound 192] | > 1 | > 1 | < 0.1 | A (A indicates [fold] > 500) | A (A indicates [fold] > 500) | A (A indicates [fold] > 500) | > 1 | < 1 |

Second part, the compound after the results:

| IC50 [1] [µM] | IC50 [2] [µM] | IC50 [3] [µM] | CDK1/CDK7: Selectivity of CDK7 inhibition over CDK1 inhibition [3] | CDK2/CDK7: Selectivity of CDK7 inhibition over CDK2 inhibition [3] | CDK5/CDK7: Selectivity of CDK7 inhibition over CDK5 inhibition [3] | IC50 [4] [µM] | IC50 [5] [µM] | Structure (SMILES) |
| --- | --- | --- | --- | --- | --- | --- | --- | --- |
| > 1 | > 1 | < 0.1 | A (A indicates [fold] > 500) | A (A indicates [fold] > 500) | A (A indicates [fold] > 500) | > 1 | < 1 | C=CC(=O)Nc1ccc2c(-c3ccccc3CNc3nc(Nc4cccnc4)nc4c(C(C)C)cnn34)nccc2c1 [Compound 188] |
| > 1 | > 1 | < 0.1 | B (B indicates 50 < [fold] ≤ 500) | B (B indicates 50 < [fold] ≤ 500) | B (B indicates 50 < [fold] ≤ 500) | > 1 | < 1 | C=CC(=O)Nc1ccc2c(-c3ccccc3CNc3cc(C(F)(F)F)nc4c(C(C)C)cnn34)nccc2c1 [Compound 198] |
| > 1 | > 1 | < 0.1 | A (A indicates [fold] > 500) | A (A indicates [fold] > 500) | A (A indicates [fold] > 500) | > 1 | < 1 | C=CC(=O)Nc1ccc2c(-c3ccccc3CNc3nc(N4CCNC(C(F)(F)F)C4)nc4c(C(C)C)cnn34)nccc2c1 (stereo not drawn) [Compound 211] |
| > 1 | > 1 | 0.1 to 1 | B (B indicates 50 < [fold] ≤ 500) | B (B indicates 50 < [fold] ≤ 500) | B (B indicates 50 < [fold] ≤ 500) | > 1 | 1 to 10 | C=CC(=O)Nc1ccc2c(-c3ccccc3CNc3nc(Nc4ccncc4)nc4c(C(C)C)cnn34)nccc2c1 [Compound 189] |
